Literature values in US20230355730A1, “METHODS FOR TREATING AUTOIMMUNE DISEASE USING BIOCOMPATIBLE BIOABSORBABLE NANOSPHERES” (UTI Limited Partnership, priority 2010, published 2023).

Tested on: IGRP206-214-reactive CD8^+ T-cells
Details: cited from earlier work; for T1D protection: chronic treatment, moderate doses (NRP-A7), high doses (NRP-I4, NRP-V7, IGRP206-214)

Sequence | T1D protection | avidity maturation of the IGRP206-214-reactive CD8^+ subset (pre-diabetic NOD mice, soluble peptide)
KYNKANAFL (SEQ ID NO:6) [NRP-A7] | afforded T1D protection | blunted avidity maturation
VYLKTNVFL (SEQ ID NO:4) [IGRP206-214, natural ligand] | only afforded marginal protection | –
KYNKANVFL (SEQ ID NO:8) [NRP-V7] | only afforded marginal protection | –
KYNIANVFL (SEQ ID NO:7) [NRP-I4] | afforded T1D protection | –
